# Measurements from patent US10285989B2, “Pyrimidinone amide compounds as PDE2 inhibitors” (Merck Sharp & Dohme Corp., priority 2015, dated 2019).
# Target: human PDE2A1 (Homo sapiens (Human), UniProt O00408)
# Experiment: PDE2 IMAP FP inhibition assay, human PDE2A1 (selectivity panel format)
# Assay type: biochemical
# Conditions: @ 3 μM; Lab B; read-out: Human PDE2 % inhibition at a given concentration - Lab B
# Protocol: Selectivity for PDE2, as compared to other PDE families, was assessed using the IMAP® technology. Human PDE10A2 enzyme was prepared from cytosolic fractions of transiently transfected HEK cells.
# A Labcyte POD 810 (Labcyte, Sunnyvale, Calif.) was used to dispense 200 nL from each well of the titration plate to make eleven copies of the assay plate for each titration, one copy for each PDE enzyme. A solution of each enzyme (dilution from aliquots, sufficient to produce 20% substrate conversion) and a separate solution of FAM-labeled cAMP or FAM-labeled cGMP from Molecular Devices (Sunnyvale, Calif., product # R7506 or cGMP#R7508), at a final concentration of 50 nM were made in the assay buffer (10 mM Tris HCl, pH 7.2, 10 mM MgCl2, 0.05% NaN3 0.01% Tween-20, and 1 mM DTT). Note that the substrate for PDE2 is 50 nM FAM cAMP containing 1000 nM of cGMP. The enzyme and the substrate were then added to the assay plates in two consecutive additions of 10 μL and then shaken to mix. The reaction was allowed to proceed at room temperature for 60 minutes. A binding solution was then made from the kit components, comprised of 80% Solution A, 20% Solution B and binding reagent at a volume of 1/600 the total binding solution. The enzymatic reaction was stopped by addition of 60 μL of the binding solution to each well of the assay plate. The plates were sealed and shaken for 10 seconds. The plates were incubated at room temperature for one hour, then the parallel and perpendicular fluorescence was measured using a Tecan Genios Pro plate reader (Tecan, Switzerland). […] The intrinsic PDE2 inhibitory activity of a compound which may be used in accordance with the present invention may be determined by these assays. […]
# human PDE2A1, sequence (O00408 other isoform, or with tags, fused parts or gaps): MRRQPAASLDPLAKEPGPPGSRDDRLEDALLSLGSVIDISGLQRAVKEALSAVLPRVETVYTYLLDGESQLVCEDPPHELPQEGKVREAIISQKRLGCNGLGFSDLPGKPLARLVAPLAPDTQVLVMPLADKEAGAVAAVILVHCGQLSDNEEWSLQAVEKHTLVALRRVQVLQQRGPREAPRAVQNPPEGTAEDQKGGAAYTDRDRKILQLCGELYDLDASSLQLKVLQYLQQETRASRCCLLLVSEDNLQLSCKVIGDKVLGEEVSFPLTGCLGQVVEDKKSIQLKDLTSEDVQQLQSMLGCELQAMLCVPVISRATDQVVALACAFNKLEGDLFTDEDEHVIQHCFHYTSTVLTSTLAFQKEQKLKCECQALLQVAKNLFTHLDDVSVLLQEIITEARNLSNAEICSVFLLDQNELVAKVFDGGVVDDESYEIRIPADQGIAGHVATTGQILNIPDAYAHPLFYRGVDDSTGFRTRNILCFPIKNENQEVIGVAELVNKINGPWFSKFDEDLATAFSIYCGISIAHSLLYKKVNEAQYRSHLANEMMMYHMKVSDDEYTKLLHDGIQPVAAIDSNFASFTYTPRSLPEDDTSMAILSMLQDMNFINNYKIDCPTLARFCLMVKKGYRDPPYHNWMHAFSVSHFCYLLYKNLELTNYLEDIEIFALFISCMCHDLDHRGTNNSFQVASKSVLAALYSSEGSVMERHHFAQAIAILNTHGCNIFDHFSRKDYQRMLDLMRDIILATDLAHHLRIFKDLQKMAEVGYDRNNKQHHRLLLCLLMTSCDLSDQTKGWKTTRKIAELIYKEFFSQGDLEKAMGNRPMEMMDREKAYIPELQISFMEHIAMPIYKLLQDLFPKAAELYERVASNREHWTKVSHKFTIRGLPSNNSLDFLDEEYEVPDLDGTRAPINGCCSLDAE
row,inhibition at 3 µM,Structure (SMILES)
1,49%,"CN(C)c1nc(C(=O)NC(c2ccc(SC(F)(F)F)c(F)c2)C2(C)CC2)cc(=O)[nH]1 (single isomer, unassigned) [Example 119, (S)- or (R)-2-(dimethylamino)-N-[{3-fluoro-4-[(trifluoromethyl)sulfanyl]phenyl}(1-methylcyclopropyl)methyl]-6-oxo-1,6-dihydropyrimidine-4-carboxamide]"
2,15%,"CC(NC(=O)c1cc(=O)[nH]c(N(C)C)n1)c1ccc(C(C)(C)C(F)(F)F)cc1 (single isomer, unassigned) [Example 121, (S)- or (R)-2-(dimethylamino)-6-oxo-N-{1-[4-(2,2,2-trifluoro-1,1-dimethylethyl)phenyl]ethyl}-1,6-dihydropyrimidine-4-carboxamide]"
3,38%,"CC(NC(=O)c1cc(=O)[nH]c(N(C)C)n1)c1ccc(C2(C(F)(F)F)CC2)cc1 (single isomer, unassigned) [Example 125, (S)- or (R)-2-(dimethylamino)-6-oxo-N-[1-{4-[1-(trifluoromethyl)cyclopropyl]phenyl}ethyl]-1,6-dihydropyrimidine-4-carboxamide]"

# Same assay, conditions: Lab B; read-out: Human PDE2 Ki (nM) - Lab B
row,Ki,Structure (SMILES)
1,34 nM,"CC(NC(=O)c1cc(=O)[nH]c(N(C)C)n1)c1ccc(C(C)(C)C(F)(F)F)cc1 (single isomer, unassigned) [Example 122, (R)- or (S)-2-(dimethylamino)-6-oxo-N-{1-[4-(2,2,2-trifluoro-1,1-dimethylethyl)phenyl]ethyl}-1,6-dihydropyrimidine-4-carboxamide]"
2,527 nM,"CN(C)c1nc(C(=O)NC(c2ccc(S(F)(F)(F)(F)F)cc2F)C(C)(C)C)cc(=O)[nH]1 (single isomer, unassigned) [Example 127, (S)- or (R)-2-(dimethylamino)-N-{1-[2-fluoro-4-(pentafluoro-λ^6-sulfanyl)phenyl]-2,2-dimethylpropyl}-6-oxo-1,6-dihydropyrimidine-4-carboxamide]"
3,5.5 nM,"CCC(C)(NC(=O)c1cc(=O)[nH]c(N(C)C)n1)c1ccc(C(F)(F)F)cc1F (single isomer, unassigned) [Example 129, (S)- or (R)-2-(dimethylamino)-N-{1-[2-fluoro-4-(trifluoromethyl)phenyl]-1-methylpropyl}-6-oxo-1,6-dihydro-pyrimidine-4-carboxamide]"
4,2.7 nM,"C[C@H]1C[C@]1(NC(=O)c1cc(=O)[nH]c(N(C)C)n1)c1ccc(C(F)(F)F)cc1 (single isomer, unassigned; enantiomer a) [Example 174, 2-(dimethylamino)-N-{2-methyl-1-[4-(trifluoromethyl)phenyl]cyclopropyl}-6-oxo-1,6-dihydropyrimidine-4-carboxamide (cis, enantiomer A)]"
5,0.92 nM,"C[C@H]1C[C@]1(NC(=O)c1cc(=O)[nH]c(N(C)C)n1)c1ccc(C(F)(F)F)cc1 (single isomer, unassigned; enantiomer b) [Example 175, 2-(dimethylamino)-N-{2-methyl-1-[4-(trifluoromethyl)phenyl]cyclopropyl}-6-oxo-1,6-dihydropyrimidine-4-carboxamide (cis, enantiomer B)]"
6,2.7 nM,"CN(C)c1nc(C(=O)NC2(c3ccc(C(F)(F)F)cc3F)CC2)cc(=O)[nH]1 [Example 49, 2-(dimethylamino)-N-{1-[2-fluoro-4-(trifluoromethyl)phenyl]cyclopropyl}-6-oxo-1,6-dihydropyrimidine-4-carboxamide]"
7,9.7 nM,"CN(C)c1nc(C(=O)NC2(c3ccc(CC(F)(F)F)cc3)CC2)cc(=O)[nH]1 [Example 51, 2-(dimethylamino)-6-oxo-N-{1-[4-(2,2,2-trifluoroethyl)phenyl]cyclopropyl}-1,6-dihydropyrimidine-4-carboxamide]"
8,4 nM,"CN(C)c1nc(C(=O)N[C@@H](c2ccc(OC(F)F)c(F)c2)C2CC2)cc(=O)[nH]1 [Example 53, N-{(R)-cyclopropyl[4-(difluoromethoxy)-3-fluorophenyl]methyl}-2-(dimethylamino)-6-oxo-1,6-dihydropyrimidine-4-carboxamide]"
9,2.2 nM,"CC(C)[C@@H](NC(=O)c1cc(=O)[nH]c(N(C)C)n1)c1ccc(C(F)F)c(F)c1 [Example 65, N-{(1R)-1-[4-(difluoromethyl)-3-fluorophenyl]-2-methylpropyl}-2-(dimethylamino)-6-oxo-1,6-dihydropyrimidine-4-carboxamide]"
10,10 nM,"CN(C)c1nc(C(=O)NC(C)(C)c2ccc(C(F)F)c(F)c2)cc(=O)[nH]1 [Example 69, N-{1-[4-(difluoromethyl)-3-fluorophenyl]-1-methylethyl}-2-(dimethylamino)-6-oxo-1,6-dihydropyrimidine-4-carboxamide]"
11,9.7 nM,"CN(C)c1nc(C(=O)NC2(c3ccc(C(F)F)c(F)c3)CC2)cc(=O)[nH]1 [Example 70, N-{1-[4-(difluoromethyl)-3-fluorophenyl]cyclopropyl}-2-(dimethylamino)-6-oxo-1,6-dihydropyrimidine-4-carboxamide]"
12,17 nM,"CN(C)c1nc(C(=O)N[C@H](c2ccc(C(F)(F)F)cc2)C(C)(C)C)cc(=O)[nH]1 [Example 72, 2-(dimethylamino)-N-{(1S)-2,2-dimethyl-1-[4-(trifluoromethyl)phenyl]propyl}-6-oxo-1,6-dihydropyrimidine-4-carboxamide]"
13,3.9 nM,"C[C@@H](NC(=O)c1cc(=O)[nH]c(N(C)C)n1)c1ccc(C(C)(F)F)cc1 [Example 74, N-{(1R)-1-[4-(1,1-difluoroethyl)phenyl]ethyl}-2-(dimelhylamino)-6-oxo-1,6-dihydropyrimidine-4-carboxamide]"
14,749 nM,"C[C@@H](NC(=O)c1cc(=O)[nH]c(N(C)C)n1)c1ccc(S(F)(F)(F)(F)F)cc1F [Example 116, (R)-2-(dimethylamino)-N-(1-(4-(pentafluorothio)-2-fluorophenyl)ethyl)-6-oxo-1,6-dihydropyrimidine-4-carboxamide]"

# More lines, now with the values behind:
row,Structure (SMILES),Ki
1,"CN(C)c1nc(C(=O)NC(c2ccc(C3(C)CC3)c(F)c2)C(C)(C)C)cc(=O)[nH]1 (single isomer, unassigned) [Example 123, (S)- or (R)-2-(dimethylamino)-N-{1-[3-fluoro-4-(1-methylcyclopropyl)phenyl]-2,2-dimethylpropyl}-6-oxo-1,6-dihydropyrimidine-4-carboxamide]",167 nM
2,"CC(NC(=O)c1cc(=O)[nH]c(N(C)C)n1)c1ccc(C2(C(F)(F)F)CC2)cc1 (single isomer, unassigned) [Example 126, (R)- or (S)-2-(dimethylamino)-6-oxo-N-[1-{4-[1-(trifluoromethyl)cyclopropyl]phenyl}ethyl]-1,6-dihydropyrimidine-4-carboxamide]",16 nM
3,"COCC1CCN(c2nc(C(=O)N[C@@H](c3ccc(C(F)(F)F)cc3)C(C)(C)C)cc(=O)[nH]2)C1 (single isomer, unassigned) [Example 177, (S)- or (R)-N-{(1R)-2,2-dimethyl-1-[4-(trifluoromethyl)phenyl]propyl}-2-[3-(methoxymethyl)pyrrolidin-1-yl]-6-oxo-1,6-dihydropyrimidine-4-carboxamide]",0.46 nM
4,"CC(C)[C@@H](NC(=O)c1cc(=O)[nH]c(O)n1)c1ccc(SC(F)(F)F)cc1 [Example 20, (R)-2-hydroxy-N-(2-methyl-1-(4-((trifluoromethyl)thio)phenyl)propyl)-6-oxo-1,6-dihydropyrimidine-4-carboxamide]",329 nM
5,"CN(C)c1nc(C(=O)NC2(c3ccc(OC(C)(C)C)cc3)CC2)cc(=O)[nH]1 [Example 50, N-[1-(4-tert-butoxyphenyl)cyclopropyl]-2-(dimethylamino)-6-oxo-1,6-dihydropyrimidine-4-carboxamide]",27 nM
6,"CN(C)c1nc(C(=O)NC2(c3ccc(OC(F)F)cc3)CC2)cc(=O)[nH]1 [Example 52, N-{1-[4-(difluoromethoxy)phenyl]cyclopropyl}-2-(dimethylamino)-6-oxo-1,6-dihydropyrimidine-4-carboxamide]",11 nM
7,"CC[C@@H](NC(=O)c1cc(=O)[nH]c(N(C)C)n1)c1ccc(C(F)F)cc1 [Example 67, N-{(1R)-1-[4-(difluoromethyl)phenyl]propyl}-2-(dimethylamino)-6-oxo-1,6-dihydropyrimidine-4-carboxamide]",6.9 nM
8,"CC[C@@H](NC(=O)c1cc(=O)[nH]c(N(C)C)n1)c1ccc(C(F)F)c(F)c1 [Example 68, N-{(1R)-1-[4-(difluoromethyl)-3-fluorophenyl]propyl}-2-(dimethylamino)-6-oxo-1,6-dihydropyrimidine-4-carboxamide]",12 nM
9,"CC(C)[C@@H](NC(=O)c1cc(=O)[nH]c(N(C)C)n1)c1ccc(C(C)(F)F)cc1 [Example 75, N-{(1R)-1-[4-(1,1-difluoroethyl)phenyl]-2-methylpropyl}-2-(dimethylamino)-6-oxo-1,6-dihydropyrimidine-4-carboxamide]",0.39 nM
10,"CN(C)c1nc(C(=O)NC(C)(C)c2ccc(OC(F)(F)F)cc2F)cc(=O)[nH]1 [Example 81, 2-(dimethylamino)-N-{1-[2-fluoro-4-(trifluoromethoxy)phenyl]-1-methylethyl}-6-oxo-1,6-dihydropyrimidine-4-carboxamide]",21 nM
